# Reference: patent publication US20110165601A1, “ASSAY SYSTEM” (THE UNIVERSITY COURT OF THE UNIVERSITY GLASGOW, priority 2006, published 2011)
# Columns and labels:
# ryanodine receptor = target: T1, ryanodine receptor (Oryctolagus cuniculus, UniProt P30957); experiment: SR Ca2+ release assay (Ca2+ leak from permeabilised cell aggregates); assay type: cell-based, rabbit; settings: after 40 mM caffeine, FIG. 2
# T1 construct: The atria were removed and discarded whereas the right and left ventricle was kept for experiments; endogenous in cells; host or cells: isolated rabbit ventricular cardiomyocytes, beta-escin permeabilised, frozen and thawed
# Procedure: Ca^2+ uptake is stimulated by addition of an aliquot of Ca^2+. SERCA inhibition is induced by thapsigargin (5 uM).
# The cell aggregate preparation is defrosted in 9× volumes of S2 with the addition of 2-3 aliquots of 100 μM CaCl2. The preparation is then aliquoted into the high format wells (96 or 384 well). […] The slow progressive increase in Ca^2+ concentration within the bath reflects Ca^2+ loss from the SR both via the ryanodine receptor and via independent leak pathways. […] As with the assay system above, two options for measurements are possible (i) follow the timecourse of the Ca^2+ release profile in detail by measuring every 1-2 s for 10 mins (ii) measuring the Ca^2+ concentration at a set time (e.g. 10 mins) after initiation of the reaction. Compounds that stimulate the SR Ca^2+ leak will cause the increase of Ca^2+ concentration to occur faster than control (vehicle). Conversely compounds that inhibit the SR Ca^2+ leak will slow the increase of Ca^2+ concentration.
# SR Ca2+ ATPase (SERCA) = target: T2, SR Ca2+ ATPase (SERCA) (Oryctolagus cuniculus, UniProt P20647); experiment: SR uptake assay in permeabilised cell preparations; assay type: cell-based, rabbit; settings: FIG. 1C
# T2 construct: The atria were removed and discarded whereas the right and left ventricle was kept for experiments; endogenous in cells; host or cells: isolated rabbit ventricular cardiomyocytes, beta-escin permeabilised, frozen and thawed
# T2 sequence (P20647 1-997 isoform P20647-2): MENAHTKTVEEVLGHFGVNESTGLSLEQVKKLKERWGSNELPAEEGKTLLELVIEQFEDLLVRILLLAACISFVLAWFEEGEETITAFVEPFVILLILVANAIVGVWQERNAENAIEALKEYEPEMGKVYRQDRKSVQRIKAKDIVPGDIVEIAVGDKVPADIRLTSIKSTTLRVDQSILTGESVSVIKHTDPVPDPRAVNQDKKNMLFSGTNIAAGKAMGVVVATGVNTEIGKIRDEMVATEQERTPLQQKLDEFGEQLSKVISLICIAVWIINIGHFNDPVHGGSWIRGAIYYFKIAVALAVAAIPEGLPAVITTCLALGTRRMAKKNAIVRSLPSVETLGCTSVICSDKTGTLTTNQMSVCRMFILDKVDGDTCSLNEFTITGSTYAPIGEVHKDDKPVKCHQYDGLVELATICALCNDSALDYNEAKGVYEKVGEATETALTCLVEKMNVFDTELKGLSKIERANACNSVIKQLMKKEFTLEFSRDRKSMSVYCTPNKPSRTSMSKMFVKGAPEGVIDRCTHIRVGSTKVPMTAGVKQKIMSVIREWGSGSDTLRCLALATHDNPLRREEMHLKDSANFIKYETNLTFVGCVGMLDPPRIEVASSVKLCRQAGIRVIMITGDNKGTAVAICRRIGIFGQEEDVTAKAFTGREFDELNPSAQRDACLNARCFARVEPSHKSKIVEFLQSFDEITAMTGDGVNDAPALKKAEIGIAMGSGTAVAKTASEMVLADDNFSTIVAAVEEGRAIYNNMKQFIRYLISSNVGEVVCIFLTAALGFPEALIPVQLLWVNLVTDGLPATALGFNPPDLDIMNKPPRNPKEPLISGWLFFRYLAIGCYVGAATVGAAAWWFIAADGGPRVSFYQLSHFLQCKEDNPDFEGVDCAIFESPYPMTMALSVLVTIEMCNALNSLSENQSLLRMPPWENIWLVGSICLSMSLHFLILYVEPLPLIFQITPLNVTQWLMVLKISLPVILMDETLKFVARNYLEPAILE
# Procedure: As indicated above the figure, Ca^2+ was added to increase the [Ca^2+] within the aggregate to ˜1.5 μM. No Ca^2+ uptake occurs due to the absence of Mg^2+ (and therefore MgATP). Addition of Me starts the reaction. The initial increase of [Ca^2+] is caused by displacement of Ca^2+ from ATP.
# Aliquots of cells are defrosted gradually with the addition of 9 volumes of S1 solution. This was followed by addition of CaCl2 to increase the free [Ca^2+] to ˜1.5 μM (˜100 μM total Ca^2+). The mixture can then be distributed into the 96 or high format arrays. Incubation of the preparation with the compound of interest can occur for 15-20 mins and the SR uptake reaction began by addition of 5.5 mM MgCl2 (with stirring). This provides the substrate (MgATP) to allow SR uptake of Ca^2+. There are two options for measurement: (i) follow the time course of the Ca^2+ uptake profile in detail by measuring every 1-2 s for up to 10 mins (ii) measuring the Ca^2+ concentration at a set time (e.g. 10 mins) after initiation of the reaction. […] These effects can be monitored in detail (option (i)—see FIG. 1 and description thereof for an example) or by simply measuring Fluo-3 fluorescence at one time point (option (ii)).
# myocytes [1] = experiment: Ca2+-contraction assay (rod count by haemocytometer); assay type: cell-based, rabbit
# Text: (§1) The following description illustrates two methods which were used to test permeabilisation of rabbit myocytes by a batch of beta-escin, and to compare two different commercial batches of saponin.
# (§2) The haemocytometer method of cell counting was used to count the number of non-permeable myocytes before and after application of the permeabilising agent (either saponin or β-Escin). Freshly dissociated cardiac muscle cells were obtained in a solution of low calcium. These were filtered and transferred into two 13.5 ml test tubes. Each was centrifuged for approximately 12 seconds at 5 g and the supernatant was discarded. Approximately 4.5 ml of EGTA solution was used to re-suspend the pellet in each tube. The contents of both were combined to form the stock suspension.
# Physiologically, myofilaments are activated by a rapid increase in the cytosolic Ca^2+ concentration from 0.1 μM to approximately 2 μM which occurs mainly due to Ca^2+ release from the SR (Levick, 2000). The Ca^2+-contraction assay used in this investigation relies upon the fact that cells with permeabilised membranes allow free access of Ca^2+ to the cytosol when exposed to high extracellular Ca^2+ concentrations. This activates the myofilaments of the cell causing it to contract into a ball. Non-permeabilised myocytes retain their characteristic rod shape. The effects of permeabilising agents on the cell population were quantified by counting the proportion of rod-shaped cells.
# On each run utilising the Ca^2+-contraction assay, sixteen 13.5 ml test tubes were obtained. Eight of these were labelled “EGTA” whilst the remaining eight were labelled “CaEGTA”. Within both sets of eight, individual tubes were labelled control 1, control 2, 0.01, 0.1, 1, 10, 100 and 1000.
# The cell stock suspension was agitated to ensure uniform distribution of cells and exactly 1 ml was pipetted into each tube labelled “EGTA”. These tubes were then transferred to the fridge to prevent degradation of the cells.
# Each tube was put through the following protocol in turn. The required volume of permeabilising agent was added (see Table 2) and a stopclock was started. During the two minute incubation time, exactly 0.5 mls of the contents of the “EGTA” tube was withdrawn using a pipette and transferred to the corresponding “CaEGTA” tube.
# Once the incubation time had elapsed the tubes were centrifuged for approximately 12 seconds at 5 g and the supernatant was withdrawn. The “EGTA” pellet was re-suspended in 0.5 mls of EGTA solution and the “CaEGTA” pellet in 0.5 mls of CeEGTA solution. Both tubes were agitated and the cell density determined by haemocytometer. The protocol was followed for all concentrations under investigation; for the two controls no permeabilising agent was added and thus no incubation step was required.
# The effect of exposing myocytes to exceedingly high concentrations of permeabilising agent ([…]) was investigated for both β-Escin and saponin. The protocol followed was the same as the Ca^2+-contraction assay protocol (described above). 100 μl of the 100 mg/ml stock was added to the 1 ml suspension volume to achieve the required concentration (see Table 2). A control plus a low concentration of agent (1 μg/ml) were also studied to validate results.
# The concentrations investigated were 1, 10, 100 and 1000 μg/ml for each saponin plus two controls. The experimental protocol followed was the same as for the Ca^2+-contraction assay method above.
# (§3) Graphs were plotted and non-linear logistic curves were fitted using least squares technique by the Microcal™ Origin™ package (version 5.0, Microcal Software Inc.). ED50 values and their associated errors were also estimated using this software. Analysis of variance (ANOVA) using Tukey's post-test comparison was used to verify significance between ED50 values (GraphPad InStat™, GraphPad Software, V2.05a).
# myocytes [2] = experiment: Trypan blue assay (access of dye into myocytes); assay type: cell-based, rabbit
# Text: as §1, §2
# Access of the vital dye Trypan blue (MW: 950 approx.) into myocytes was used to evaluate permeabilisation by Saponin (Calbiochem brand) or β-escin. Permeabilised myocytes were identified by positive staining (blue colour) of the cell contents. Cells with intact membranes excluded the dye and it was this population that was counted.
# For each run utilising the trypan blue assay, eight 13.5 ml test tubes were obtained. Each was labelled control 1, control 2, 0.1, 1, 10, 100, 1000 or 10000.
# The cell stock suspension was agitated to ensure uniform distribution of cells and exactly 1 ml was pipetted into each tube. These were then transferred to the fridge to prevent degradation of the cells. Each tube was put through the following protocol in turn. The required volume of permeabilising agent was added (see Table 2) and a stopclock was started.
# Once the incubation time had elapsed the tube was centrifuged for approximately 12 seconds at 5 g and the supernatant was withdrawn. The pellet was re-suspended in 0.5 mls of EGTA solution and 0.5 mls of 0.5% Trypan blue (BDH Laboratory Supplies, Poole, England) in 5 mM EGTA, which had been previously gently heated to ensure that the dye was dissolved. The tube was agitated and cell density determined by hamocytometer counting.
# The protocol was followed for all concentrations under investigation; for the two controls no permeabilising agent was added and thus no incubation step was required.
# as §3
# cardiac myocytes = experiment: Permeabilisation of a sample of cardiac myocytes; assay type: cell-based; settings: at 1 mg/ml
compound,measurement,setting,value
N.N.N.N.N.N.N.N.N.N.N.N.N.N.[Cl-].[Cl-].[Cl-].[Cl-].[Cl-].[Cl-].[O-2].[O-2].[Ru+3].[Ru+3].[Ru+4] [ruthenium red],effect on caffeine-stimulated Ca2+ leak from SR,ryanodine receptor,blocked
C/C=C(/C)C(=O)O[C@H]1C(C)=C2[C@H]([C@@H]1OC(=O)CCCCCCC)[C@@](C)(OC(C)=O)C[C@H](OC(=O)CCC)[C@@]1(O)[C@H]2OC(=O)[C@@]1(C)O [thapsigargin],effect on SERCA,SR Ca2+ ATPase (SERCA),inhibition
β-escin,concentration at which permeabilisation (decrease in rod count in 5 mM Ca2+ EGTA) began,myocytes [1]; Ca2+-contraction assay,10 µg/mL
same,concentration range over which permeabilisation was produced,myocytes [1]; Ca2+-contraction assay,1 to 10000 µg/mL
same,minimum effective concentration,"myocytes [1]; Ca2+-contraction assay, 5 mM Ca2+ EGTA",100 µg/mL
same,proportion of cell population hyperpermeable / permeabilised,myocytes [1]; at 100 μg/ml,Approximately 100%
same,proportion of cell population hyperpermeable / permeabilised,myocytes [1]; at 1000 μg/ml,Approximately 100%
same,proportion of cell population hyperpermeable / permeabilised,myocytes [1]; at 10000 μg/ml,Approximately 100%
same,concentration from which trypan blue began to enter the myocytes,myocytes [2],1 to 10 µg/mL
same,mean rod count excluding dye,myocytes [2]; at 0.1 μg/ml,approximately 90%
same,mean rod count excluding dye,myocytes [2]; at 1 μg/ml,approximately 110%
same,"decrease of mean rod count, of the control value",myocytes [2]; at 10 μg/ml,approximately 35%
same,proportion of control population permeable to trypan blue,myocytes [2]; at 100 μg/ml,Approximately 100%
same,proportion of control population permeable to trypan blue,myocytes [2]; at 1000 μg/ml,Approximately 100%
same,proportion of control population permeable to trypan blue,myocytes [2]; at 10000 μg/ml,Approximately 100%
same,minimum effective concentration,myocytes [2]; trypan blue assay,100 µg/mL
same,proportion of cardiac myocytes permeabilised,cardiac myocytes,about 10%
